# Source: US8440725B2, “Synergistic preparations based on mixtures of glycerol ether with aromatic alcohol for controlling mycobacteria” (Air Liquide Sante (International), priority 2002, dated 2013)
# System: Mycobacterium terrae (ATCC15755)
# Assay: Quantitative suspension test Mycobacterium terrae without load, room temperature
# Assay type: cell-based
# Details: 0.1% added to 30% strength ethanol, exposure time 60 minutes
# Experimental: Various aqueous disinfectants were tested with respect to their activity towards Mycobacterium terrae, cell count 1 to 3×10^9 in a quantitative suspension test without load. The following reduction factors were measured, a reduction factor>5 corresponding to a sufficient Tb activity. For this various amounts of ethanol were added to aqueous active compound solutions and after exposure for 15, 30 and 60 minutes were tested. For testing the tuberculocidal activity, the quantitative suspension test Mycobacterium terrae (ATCC15755) was used in accordance with the Deutsche Gesellscaft für Hygiene and Mikrobiologie [German Society for Hygiene and Microbiology] of 30 Apr. 1997 (Hyg. Med. 22, 1997, issue 6, pages 278ff.).
structure (smiles),measurement,value
"CCCCC(CC)COCC(O)CO (stereo not shown) [SC 50, 1-(2-ethylhexyl) glycerol ether]",Tb activity (reduction factor>5 = sufficient),sufficiently Tb active
